# Results as given in patent publication US6914045B2, “Glycopeptide antibiotics” (Wyeth Holdings Corporation, priority 2001, dated 2005).
# What was measured:
# Test in all cases: in vitro antibacterial evaluation, MIC by broth dilution
# Format in all cases: cell-based
# Staphylococcus sp. = settings: broth dilution, 18 hours at 35° C.; for MIC Staphylococcus aureus (GC 1131): strain GC 1131
# In short: (§1)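 Broth dilution per NCCLS M7-A2 in Mueller-Hinton II medium, inoculum 5×10^5 CFU/mL, antibiotic range 64-0.06 μg/mL. MIC taken as lowest concentration inhibiting growth; Gram-positive panel includes recent clinical isolates resistant to methicillin, penicillin and/or vancomycin.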
# Escherichia coli = tested on: Escherichia coli
# In short: as §1
# Streptococcus sp. = settings: broth dilution, 18 hours at 35° C.
# In short: as §1
# Enterococcus sp. = settings: broth dilution, 18 hours at 35° C.
# In short: as §1
structure (smiles),measurement,setting,value
"CC(c1ccccc1)C1NC(=O)CNC(=O)C(CO)NC(=O)C(C(O)C2CNC(=N)N2C2OC(CO)C(O)C(O)C2O)NC(=O)C(C(O)C2CNC(=N)N2)NC(=O)C(Cc2ccc(OC3OC(CO)C(OC4OC5COC(c6cccc(Cl)c6)OC5C(O)C4O)C(O)C3O)cc2)NC1=O (stereo not drawn) [Example 138, Cyclo[glycyl-β-methylphenylalanyl-O-[4-O-[4,6-O-(3-chlorobenzylidene)hexopyranosyl]-hexopyranosyl]tyrosyl-3-(2-iminoimidazolidin-4-yl)seryl-3-(3-hexopyranosyl-2-iminoimidazolidin-4-yl)serylseryl]]",MIC Staphylococcus aureus (GC 1131),Staphylococcus sp.; inoculum 5×10^5 CFU/mL,2 µg/mL
same,MIC Staphylococcus aureus (ATCC 29213),Staphylococcus sp.; strain ATCC 29213,2 µg/mL
same,MIC Staphylococcus aureus (GC 1131),Staphylococcus sp.,2 µg/mL
same,MIC Staphylococcus aureus (GC 3051),Staphylococcus sp.; strain GC 3051,2 µg/mL
same,MIC Staphylococcus aureus (GC 3053),Staphylococcus sp.; strain GC 3053,2 µg/mL
same,MIC Staphylococcus aureus (GC 4541),Staphylococcus sp.; strain GC 4541,2 µg/mL
same,MIC Staphylococcus aureus (GC 4542),Staphylococcus sp.; strain GC 4542,2 µg/mL
same,MIC Staphylococcus aureus-SMITH (GC 4543),Staphylococcus sp.; strain GC 4543,1 µg/mL
same,MIC Staphylococcus aureus (GC 4544),Staphylococcus sp.; strain GC 4544,2 µg/mL
same,MIC Staphylococcus aureus (GC 4545),Staphylococcus sp.; strain GC 4545,2 µg/mL
same,MIC Staphylococcus haemolyticus (GC 4546),Staphylococcus sp.; strain GC 4546,2 µg/mL
same,MIC Coagulase Negative Staphylococcus (GC 4547),Staphylococcus sp.; strain GC 4547,4 µg/mL
same,MIC Coagulase Negative Staphylococcus (GC 4548),Staphylococcus sp.; strain GC 4548,1 µg/mL
same,MIC Coagulase Negative Staphylococcus (GC 4549),Staphylococcus sp.; strain GC 4549,1 µg/mL
same,MIC Coagulase Negative Staphylococcus (GC 4551),Staphylococcus sp.; strain GC 4551,2 µg/mL
same,MIC Coagulase Negative Staphylococcus (GC 6257),Staphylococcus sp.; strain GC 6257,2 µg/mL
same,MIC Staphylococcus aureus-SMITH (GC 4543),Staphylococcus sp.; strain SMITH GC 4543,1 µg/mL
same,MIC Escherichia coli (ATCC 25922),"Escherichia coli; strain ATCC 25922, 18 hours at 35° C.",64 µg/mL
same,MIC Escherichia coli (GC 4559),"Escherichia coli; strain GC 4559, 18 hours at 35° C.",64 µg/mL
same,MIC Escherichia coli (GC 4560),"Escherichia coli; strain GC 4560, 18 hours at 35° C.",0.5 µg/mL
same,MIC Streptococcus agalactiae (GC 4564),Streptococcus sp.; Streptococcus agalactiae (GC 4564),0.12 µg/mL
same,MIC Streptococcus pneumoniae (ATCC 6301),Streptococcus sp.; Streptococcus pneumoniae (ATCC 6301),<0.06 µg/mL
same,MIC Streptococcus pneumoniae (GC 1894),Streptococcus sp.; Streptococcus pneumoniae (GC 1894),<0.06 µg/mL
same,MIC Streptococcus pneumoniae (GC 4565),Streptococcus sp.; Streptococcus pneumoniae (GC 4565),<0.06 µg/mL
same,MIC Streptococcus pyogenes (GC 4563),Streptococcus sp.; Streptococcus pyogenes (GC 4563),0.25 µg/mL
same,MIC Streptococcus pneumoniae (ATCC 6301),Streptococcus sp.; strain ATCC 6301,<0.06 µg/mL
same,MIC Streptococcus pneumoniae (GC 1894),Streptococcus sp.; strain GC 1894,<0.06 µg/mL
same,MIC Streptococcus pyogenes (GC 4563),Streptococcus sp.; strain GC 4563,0.25 µg/mL
same,MIC Streptococcus agalactiae (GC 4564),Streptococcus sp.; strain GC 4564,0.12 µg/mL
same,MIC Streptococcus pneumoniae (GC 4565),Streptococcus sp.; strain GC 4565,<0.06 µg/mL
same,MIC Enterococcus avium (GC 4558),Enterococcus sp.; Enterococcus avium (GC 4558),4 µg/mL
same,MIC Enterococcus faecalis (ATCC 29212),Enterococcus sp.; Enterococcus faecalis (ATCC 29212),4 µg/mL
same,MIC Enterococcus faecalis (GC 2242),Enterococcus sp.; Enterococcus faecalis (GC 2242),4 µg/mL
same,MIC Enterococcus faecalis (GC 2691),Enterococcus sp.; Enterococcus faecalis (GC 2691),8 µg/mL
same,MIC Enterococcus faecalis (GC 3059),Enterococcus sp.; Enterococcus faecalis (GC 3059),4 µg/mL
same,MIC Enterococcus faecalis (GC 4552),Enterococcus sp.; Enterococcus faecalis (GC 4552),4 µg/mL
same,MIC Enterococcus faecalis (GC 4553),Enterococcus sp.; Enterococcus faecalis (GC 4553),8 µg/mL
same,MIC Enterococcus faecalis (GC 4554),Enterococcus sp.; Enterococcus faecalis (GC 4554),8 µg/mL
same,MIC Enterococcus faecalis (GC 6189),Enterococcus sp.; Enterococcus faecalis (GC 6189),4 µg/mL
same,MIC Enterococcus faecium (GC 2243),Enterococcus sp.; Enterococcus faecium (GC 2243),4 µg/mL
same,MIC Enterococcus faecium (GC 4556),Enterococcus sp.; Enterococcus faecium (GC 4556),8 µg/mL
same,MIC Enterococcus faecium (GC 4557),Enterococcus sp.; Enterococcus faecium (GC 4557),2 µg/mL
same,MIC Enterococcus faecalis (ATCC 29212),Enterococcus sp.; strain ATCC 29212,4 µg/mL
same,MIC Enterococcus faecalis (GC 2242),Enterococcus sp.; strain GC 2242,4 µg/mL
same,MIC Enterococcus faecium (GC 2243),Enterococcus sp.; strain GC 2243,4 µg/mL
same,MIC Enterococcus faecalis (GC 2691),Enterococcus sp.; strain GC 2691,8 µg/mL
same,MIC Enterococcus faecalis (GC 3059),Enterococcus sp.; strain GC 3059,4 µg/mL
same,MIC Enterococcus faecalis (GC 4552),Enterococcus sp.; strain GC 4552,4 µg/mL
same,MIC Enterococcus faecalis (GC 4553),Enterococcus sp.; strain GC 4553,8 µg/mL
same,MIC Enterococcus faecalis (GC 4554),Enterococcus sp.; strain GC 4554,8 µg/mL
same,MIC Enterococcus faecium (GC 4556),Enterococcus sp.; strain GC 4556,8 µg/mL
same,MIC Enterococcus faecium (GC 4557),Enterococcus sp.; strain GC 4557,2 µg/mL
same,MIC Enterococcus avium (GC 4558),Enterococcus sp.; strain GC 4558,4 µg/mL
same,MIC Enterococcus faecalis (GC 6189),Enterococcus sp.; strain GC 6189,4 µg/mL
